Counter-ions that a name gives are not always drawn.
Tests used:
[1] = test system: advanced or metastatic solid tumours; assay: Open-label phase 1 dose-escalating study; type: in vivo
Experimental: Phase I: This was an open-label, phase 1 study to determine the maximum tolerated dose (MTD) or appropriate target dose if MTD not reached to identify the recommended phase 2 dose of LOR-253 HCl in patients with advanced or metastatic solid tumours. In the first set of doses, LOR-253 HCl was given in ascending doses until the maximum administered dose or appropriate target dose is reached. In the other set of doses, LOR-253 HCl was given in ascending doses starting from 20 mg/m2 until the maximum administered dose or appropriate target dose is reached. Patient as treated on LOR-253 HCl for 2 cycles for the evaluation. • Other Name: No other names are used. • Study Type: Interventional • Study Design: • Endpoint Classification: Safety Study • Intervention Model: Single Group Assignment • Masking: Open Label • Primary Purpose: Treatment • Official Title: Open-Label, Phase 1 Study of LOR-253 HCl in Patients With Advanced or Metastatic Solid Tumours Primary Outcome Measures: • To determine the maximum tolerated dose (MTD) or appropriate target dose if MTD not reached to identify the recommended phase 2 dose of LOR-253 HCl in patients with advanced or metastatic solid tumours. [Time Frame: 8 weeks] Secondary Outcome Measures: • To characterize the safety profile of LOR-253 HCl when administered to patients with advanced or metastatic solid tumours. [Time Frame: 8 weeks] Inclusion Criteria: • 1. Male or female 18 years of age or older. • 2. Histologically confirmed diagnosis of solid tumor for which no effective therapy is available or that is unresponsive to conventional therapy. • 3. Meet laboratory parameter requirements at study entry. Exclusion Criteria: • 1. Chemotherapy, radiotherapy, biologic therapy, immunotherapy or any other investigational drugs within 21 days of beginning study treatment with LOR-253 HCl. • 2. A hematologic malignancy. • 3. A history of brain or other central nervous system metastases. • 4. Have a presence of a significant infection. • 5. Clinically significant autoimmune disease. • 6. Uncontrolled intercurrent illness. • 7. With iron or copper overload syndromes. • 8. Pregnancy or breast feeding.

[2] = Toxicity assessment in Kasumi-1 tumor-bearing mice; conditions: 15 mg/kg twice per day i.v., two days per week, four weeks
Experimental: (§1) The anti-tumor activity of LOR-253 HCl was evaluated in another in vivo animal model of human AML. The human AML cell line Kasumi-1 was implanted subcutaneously into athymic nude mice. Some tumor-bearing mice were treated with LOR-253 HCl at 30 mg/kg (15 mg/kg twice per day) for two consecutive days per week for four weeks (the “LOR-253 treatment group”). LOR-253 was administered by intravenous (i.v.) bolus injection as the hydrochloric salt form (LOR-253-HCl) formulated in 20% Polyethylene Glycol 400, 10% Propylene Glycol, and 10% Solutol HS in 60% water.
(§2) The major endpoint was to observe for tumor growth inhibition after treatment with LOR-253 HCl and compare the anti-tumor effects of different dosing schedules. Tumor sizes were measured three times per week from day 10 after the tumor cell inoculation. Tumors were measured in three dimensions using calipers and the volume was expressed in millimeters cubed using the formula: V=0.5a×b×c, where a, b, and c are the length, width, and height of the tumor, respectively. Mean tumor volumes+/−standard error (SE) were calculated from each measurement and then plotted in a standard graph to compare the anti-tumor efficacy of drug treatment to that of control (FIG. 15). Toxicity was assessed by clinical observations and by measurement of mouse body weight in grams twice per week over the course of the study. […]

[3] = test system: HL-60; assay: HL-60 AML xenograft model; type: in vivo, athymic nude mice; conditions: HL-60 xenograft, 3 cycles, FIG. 17
Experimental: The human AML cell line HL-60 was implanted subcutaneously into athymic nude mice. Tumor-bearing mice were treated with LOR-253 HCl alone or in combination with azacitidine, with azacitidine alone, or with a negative control vehicle. The detailed treatment conditions are as follows. • Group 1: Negative control group. LOR-253 HCl control vehicle, 2×/day, 3 cycles of 2 consecutive days, 5 days between cycles, i.v., plus 1% D-mannitol every four days by s.c. injection • Group 2: Azacitidine (in 1% D-mannitol) at 10 mg/kg 1× on days 1, 4, 8, 11, 15 and 18 by subcutaneous (s.c.) injection • Group 3: LOR-253 HCl at 15 mg/kg bid for 3 cycles, each cycle is 2 consecutive days of dosing per week with 5 days of non-dosing, i.v., n=9 (2T-5B) • Group 4: LOR-253 HCl at 15 mg/kg 2×/day (bid) for 3 cycles, each cycle is 1 day of dosing per week with 6 days of non-dosing, i.v., n=9 (1T-6B) • Group 5: Combination of LOR-253 (2T-5B) and azacitidine. LOR-253 HCl at 15 mg/kg bid for 3 cycles, each cycle is 2 consecutive days of dosing per week with 5 days of non-dosing, i.v., n=9 (2T-5B) plus azacitidine at 10 mg/kg 1× every four days by s.c. injection • Group 6: Combination of LOR-253 (1T-6B) and azacitidine. […]
Tumor sizes were measured three times per week.

[4] = test system: THP-1; assay: THP-1 AML xenograft model; type: in vivo, mice; conditions: THP-1 xenograft; Group-2: i.v. Days 1, 2, 8, 9, 15, 16 and IP Days 22-25, 29, 30; FIG. 21
Experimental: The anti-tumor activity of LOR-253 HCl, as a single agent and in combination with azacitidine, was evaluated in yet another in vivo animal model of human AML. Xenograft model mice for AML cell line THP-1 was generated with the same method as in Examples 14 and 15, and were treated with LOR-253 HCl alone or in combination with azacitidine, with azacitidine alone, or with a negative control vehicle, and tumor sizes were measured as described in Examples 14 and 15. The detailed treatment conditions are shown as follows, and the results are shown in FIG. 21. • Group 1 Control: received i.v. treatments with LOR-253 control vehicle (CV) on Days 1, 2, 8, 9, 15 &16; received subcutaneous (SC) treatments with Azacitidine control vehicle on Days 1, 4, 8, 11, 15, 18, 22, 25, 29 &32; and received intraperitoneal (IP) treatments with LOR-253-CV on Days 22, 23, 24, 25, 29&30. • Group-2—LOR-253: received i.v. treatments on Days 1, 2, 8, 9, 15 &16; received IP treatments on Days 22, 23, 24, 25, 29&30 • Group-3—Azacitidine: received SC treatments on Days 1, 4, 8, 11, 15, 18, 22, 25, 29 &32. • Group-4—Combination: received i.v. treatments with LOR-253 on Days 1, 2, 8, 9, 15 &16; received IP treatments with LOR-253 on Days 22, 23, 24 &25; and received SC-treatment with Azacitidine on Days 1, 4, 8, 11, 15, 18, 22 &25

[5] = test system: KG-1; assay: KG-1 AML xenograft model; type: in vivo, mice; conditions: KG-1 xenograft; 15 mg/kg-iv, bid, 2T/wk; FIG. 20
Experimental: Xenograft model mice for AML cell line KG-1 was generated with the same method as in Examples 14 and 15, and were treated with LOR-253 HCl or control according to the following regime.
LOR-253—15 mg/kg-iv, bid, 2T/wk—Day 1

[6] = test system: Kasumi-1; assay: Kasumi-1 AML xenograft model; type: in vivo, athymic nude mice; conditions: Kasumi-1 xenograft; 30 mg/kg (15 mg/kg twice per day) i.v., two consecutive days per week, four weeks; p=0.028 by Student's t-test; FIG. 15
Experimental: as §1, §2

[7] = test system: CYP450 enzymes; assay: CYP450 inhibition; type: in vitro ADME; conditions: preclinical testing
[8] = Repeat-dose toxicity study, cardiovascular effects; type: in vivo; conditions: dogs, highest dose tested (data not shown)
[9] = target: hERG tail current density (Homo sapiens, UniProt Q12809); assay: hERG tail current inhibition; type: cell-based; conditions: preclinical testing
[10] = Pharmacokinetics, serum level after i.v. bolus; type: in vivo; conditions: CD-1 nude mice; i.v. bolus of LOR-253 HCl at 1, 5, 15 mg/kg; FIG. 10
Experimental: To study the pharmacokinetic (PK) […], CD-1 nude mice were treated by i.v. bolus injections of LOR-253 HCl at 1, 5, and 15 mg/kg. The serum level of LOR-253 was measured.

[11] = GLP blood compatibility studies
[12] = patients with advanced solid tumors, phase I

hERG tail current density, sequence (Q12809 whole entry): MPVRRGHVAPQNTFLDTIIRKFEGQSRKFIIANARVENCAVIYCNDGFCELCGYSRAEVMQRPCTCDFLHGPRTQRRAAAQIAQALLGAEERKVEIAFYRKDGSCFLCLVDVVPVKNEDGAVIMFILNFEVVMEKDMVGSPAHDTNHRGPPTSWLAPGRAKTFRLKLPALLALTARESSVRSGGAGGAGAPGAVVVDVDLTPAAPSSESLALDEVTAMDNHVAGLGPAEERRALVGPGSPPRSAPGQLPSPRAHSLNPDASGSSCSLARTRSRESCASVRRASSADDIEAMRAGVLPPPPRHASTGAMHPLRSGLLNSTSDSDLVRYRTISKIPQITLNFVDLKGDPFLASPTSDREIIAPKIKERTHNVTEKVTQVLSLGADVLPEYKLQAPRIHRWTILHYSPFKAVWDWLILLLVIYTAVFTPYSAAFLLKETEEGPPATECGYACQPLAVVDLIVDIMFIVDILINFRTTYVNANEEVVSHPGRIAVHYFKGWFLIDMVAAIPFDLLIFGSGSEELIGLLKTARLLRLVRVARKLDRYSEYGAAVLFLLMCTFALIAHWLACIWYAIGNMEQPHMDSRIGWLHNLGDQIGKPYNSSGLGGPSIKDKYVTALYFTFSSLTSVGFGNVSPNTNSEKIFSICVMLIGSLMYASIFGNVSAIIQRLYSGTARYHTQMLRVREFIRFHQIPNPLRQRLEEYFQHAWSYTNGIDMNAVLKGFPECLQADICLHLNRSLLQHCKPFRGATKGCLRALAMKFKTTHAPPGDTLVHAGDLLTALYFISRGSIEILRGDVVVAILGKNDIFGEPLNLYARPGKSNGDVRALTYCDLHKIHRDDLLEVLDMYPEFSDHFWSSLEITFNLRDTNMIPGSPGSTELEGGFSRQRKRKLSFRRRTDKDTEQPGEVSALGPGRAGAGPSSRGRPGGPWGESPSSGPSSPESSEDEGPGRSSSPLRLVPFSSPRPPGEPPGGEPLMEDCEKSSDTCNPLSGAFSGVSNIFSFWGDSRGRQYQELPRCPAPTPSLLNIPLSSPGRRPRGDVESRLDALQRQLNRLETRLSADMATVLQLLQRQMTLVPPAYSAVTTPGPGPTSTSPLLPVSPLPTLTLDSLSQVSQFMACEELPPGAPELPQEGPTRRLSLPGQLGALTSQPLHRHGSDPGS

Row | Structure (SMILES) | safety profile ([1]; N=27 patients across 7 dose levels, phase I) | tumor response in single patient ([1]; patient with NSCLC (poorly differentiated adenocarcinoma) and extensive metastases refractory to prior therapies, FIG. 12) | RECIST partial response [1, 12] | most common AE and SAE [1, 12] | Stable Disease, share of evaluable patients ([1]; patients with advanced solid tumors, phase I, 7 dose levels) [%] | overt signs of toxicity (clinical observations) [2] | body weight ([2]; FIG. 16) | inhibition of tumor growth, single agent ([3]; Group 3: 15 mg/kg twice per day i.v., two consecutive days per week (2T-5B)) | inhibition of tumor growth, single agent ([3]; Group 4: 15 mg/kg twice per day i.v., one day per week (1T-6B)) | inhibition of tumor growth, single agent [4] | tumor growth inhibition, single agent [5] | tumor growth inhibition vs vehicle control [6] | inhibition of CYP450 enzymes [7] | cardiovascular effects [8] | inhibition of hERG tail current density [9] | serum level of LOR-253 [10] | blood compatibility of IV formulation [11]
1 | Cc1[nH]c2ccc(F)cc2c1-c1nc2c3cccnc3c3ncccc3c2[nH]1 [LOR-253 HCl] | Excellent Safety Profile | Tumor shrinkage | No RECIST PR | Fatigue and 1 case of reversible hypophosphatemia | 41 | did not show other overt signs of toxicity | did not show body weight loss | approximately the same extent as or slightly more than azacitidine alone | approximately the same extent as or slightly more than azacitidine alone | about the same extent as or slightly more than azacitidine alone | significant tumor growth inhibition | significant tumor growth inhibition | – | – | – | – | –
2 | Cc1[nH]c2ccc(F)cc2c1-c1nc2c3cccnc3c3ncccc3c2[nH]1 [LOR-253] | – | – | – | – | – | – | – | – | – | – | – | – | no significant inhibition | no treatment-related cardiovascular effects | no significant inhibition | dose related increase | confirmed the suitability of IV formulation

Reference: US9567643B2, “Compositions and methods for treating cancers” (Aptose Biosciences Inc., priority 2013, dated 2017)
